Where “and” joins values, the source holds several entries; their conditions need not be identical. Identical values can stand only once.

The results in this text go back to the Deep4Chem optical property database.

The nature of the series: solvent given as SMILES.

For the setting “in CC#N”, `F[B-]1(F)n2c(c(-c3cccs3)c3c2-c2ccccc2CC3)C=C2C(c3cccs3)=C3CCc4ccccc4C3=[N+]21` gave an absorption maximum of 636 nm.

For the compound `Cc1ccc(/C=C(\c2ccccc2)c2nc3ccccc3s2)cc1`, the absorption maximum runs as follows: (in C1CCCCC1) 340 nm; (in CO) 345 nm.

On to `CCCCCCCCOC(=O)c1cc2ccc3ccccc3c2c(C#N)c1N`, for which the absorption maximum (in Cc1ccccc1) turned out to be 435 nm.

Consider `c1ccc(-c2nn(-c3ccccc3)c3nc4ccc(-n5c6ccccc6c6ccccc65)cc4cc23)cc1`, for which the absorption maximum (in C1CCCCC1) came to 419.11 nm; the absorption maximum (in C1CCOC1) worked out at 414.94 nm; the absorption maximum (in CC#N) was determined as 411.02 nm; the absorption maximum (in CC(C)=O) is listed as 412.03 nm; the absorption maximum (in CCCCCl) is 415.97 nm; the absorption maximum (in CCCCOCCCC) came out at 418.06 nm. The compound further yielded an absorption maximum (in CN(C)C=O) of 414.94 nm.

Consider `Clc1nc(Nc2ccccc2)nc(Nc2ccc3cc4ccccc4cc3c2)n1`, for which the absorption maximum is, setting by setting: (in C1COCCO1) 398 nm; (in CC#N) 397 nm; (in CCCCOCCCC) 398 nm; (in CCOC(C)=O) 396 nm.

Under “in CCCCCC”, `Cc1cc(C)n2c1C=C1C(=O)N(C)C(c3ccc([N+](=O)[O-])cc3)=[N+]1[B-]2(F)F` displayed an absorption maximum of 498 nm.

Consider `N#Cc1cc(-c2ccc(N3c4ccccc4Oc4ccccc43)cc2)c(-c2ccc(N3c4ccccc4Oc4ccccc43)cc2)cc1C#N`, for which the absorption maximum (in Cc1ccccc1) is 406 nm.

`COc1cc2c(cc1OC)C1=C[C@H](c3ccccc3)C3(C(C#N)=C(C#N)N1CC2)c1ccccc1-c1ccccc13` gave an absorption maximum (in ClCCl) of 310 nm.

Consider `CCOC(=O)c1c(-c2c(Cl)c3ccccc3oc2=O)nn(-c2ccc(Br)cc2)c1C(=O)OCC`, for which the absorption maximum (in ClCCl) amounted to 322 nm.

The compound `O=C1OC(c2ccccc2)=C/C1=C\c1ccccc1` gave an absorption maximum (in C1COCCO1) of 442 nm.

The compound `N#Cc1c(-n2c3ccc(I)cc3c3cc(I)ccc32)c(C#N)c(-n2c3ccc(I)cc3c3cc(I)ccc32)c(-n2c3ccc(I)cc3c3cc(I)ccc32)c1-n1c2ccc(I)cc2c2cc(I)ccc21` came in with an absorption maximum (in Cc1ccccc1) of 384 nm.

`CC1=CC(C)=[N+]2C1=C(c1ccc(O)cc1)c1c(C)cc(/C=C/C=C3/N(C)c4ccccc4C3(C)C)n1[B-]2(F)F` returned an absorption maximum (in O) of 650 nm.

In turn, `O=C([O-])c1cc2c(ccc3ccccc32)oc1=O` displayed an absorption maximum (in O) of 360 nm.

The compound `CCC1=C(C)C2=C(/C=C/c3ccc(OC)cc3)c3c(C)c(CC)c(C)n3[B-](F)(F)[N+]2=C1C` had an absorption maximum (in ClCCl) of 529 nm.

`C(=C\c1ccc(/C=C/c2cccs2)s1)/c1cccs1` displayed an absorption maximum (in CC#N) of 423 nm.

Under “in ClC(Cl)Cl”, `CCCCCCCCN1C(=O)c2ccc3c4c(-c5ccc6c(c5)c5ccccc5n6-c5ccccc5)cc5c6c(ccc(c7c(-c8ccc9c(c8)c8ccccc8n9-c8ccccc8)cc(c2c37)C1=O)c64)C(=O)N(CCCCCCCC)C5=O` showed an absorption maximum of 609 nm.

For the compound `CC[N+]1=C(/C=C/C=C/C=C/C=C2/N(CCCCCC(=O)O)c3ccccc3C2(C)C)C(C)(C)c2cc(S(=O)(=O)[O-])ccc21`, the absorption maximum (in CO) was 751 nm and the absorption maximum (in O) is given as 745 nm.

Where the note is “in ClC(Cl)Cl”, `O=C1CC(c2ccccc2)c2c(c3ccccc3c3nc4ccccc4nc23)O1` (configuration not stated) displayed an absorption maximum of 410 nm.

Compound `Fc1nc(F)c(F)c(C#Cc2ccccc2C#Cc2c(F)c(F)nc(F)c2F)c1F` registered an absorption maximum (in CC#N) of 300 nm.

On to `Cc1ccccc1[B-]1(c2ccccc2C)n2nc(C(F)(F)F)cc2-c2c3ccccc3cc[n+]21`, for which the absorption maximum runs as follows: (in C1CCCCC1) 374 nm; (in Cc1ccccc1) 380 nm; (in ClCCl) 374 nm.

For the compound `CCCCn1c2ccccc2c2ccc(C#Cc3ccc4ccc5cccc6ccc3c4c56)cc21`, the absorption maximum (in ClCCl) amounted to 404 nm.

On to `Cn1c(-c2ccc(-c3nc(-c4ccccc4)c(-c4ccccc4)n3C)cc2)nc(-c2ccccc2)c1-c1ccccc1`, for which the absorption maximum (in CC#N) is 365 nm and 334 nm.

Under “in ClC(Cl)Cl”, `CCCCCCN1C(=O)c2cccc3cc(/N=C\c4ccc(N(c5ccccc5)c5ccccc5)cc4)cc(c23)C1=O` had an absorption maximum of 380 nm.

As to `CCOC(=O)/C(C#N)=C\c1ccc2c(c1)c1ccccc1n2-c1ccc(C)cc1`, the absorption maximum is 390 nm (in C1CCOC1); 389 nm (in CC#N); 388 nm (in CC(C)=O); 400 nm (in CCOC(C)=O); 391 nm (in CO); 397 nm (in CS(C)=O). The absorption maximum worked out at 396 nm (in Cc1ccccc1) and 389 nm (in ClC(Cl)Cl).

As to `C=CCNc1ccc2ccc3oc4cc(=O)ccc-4nc3c2c1`, the absorption maximum stood at 537 nm (in CC#N), 531 nm (in CCO), 539 nm (in ClCCl) and 522 nm (in O).

`COC(=O)c1ccc(C#Cc2ccccc2)cc1` yielded an absorption maximum (in C1CCCCC1) of 316.6 nm; an absorption maximum (in CC#N) of 311.6 nm; an absorption maximum (in CC(C)O) of 313.8 nm; an absorption maximum (in CCCCCC) of 314.8 nm; an absorption maximum (in CCCCCCCCCCCCCCCC) of 317.3 nm; an absorption maximum (in CCCCCCCCCCCCCCCCCl) of 317.2 nm. For the setting “in CO”, this compound had an absorption maximum of 311.8 nm.

As to `CC(C)(C)c1ccc2oc3nc4oc5ccc(-n6c7ccc(C(C)(C)C)cc7c7cc(C(C)(C)C)ccc76)cc5c4cc3c2c1`, for the setting “in ClC(Cl)Cl”, the absorption maximum was 346 nm.

In turn, `C[Si]1(C)c2ccc(-c3ccc(N(c4ccccc4)c4ccccc4)cc3)cc2C=Cc2cc(-c3ccc(N(c4ccccc4)c4ccccc4)cc3)ccc21` gave an absorption maximum (in ClCCl) of 390 nm.

Regarding `Cc1cc(N2c3ccccc3C3(c4ccccc4-c4ccccc43)c3ccccc32)c(C)cc1-c1nc(-c2ccccc2)nc(-c2ccccc2)n1`, the absorption maximum (in Cc1ccccc1) came out at 382.89 nm.

Take `CC1=C(c2cccs2)C(C)=[N+]2C1=C(c1ccccc1)c1c(C)c(-c3cccs3)c(C)n1[B-]2(F)F`: the absorption maximum (in CO) was 521 nm, the absorption maximum (in Cc1ccccc1) is reported as 530 nm and the absorption maximum (in ClCCl) is 527 nm.

With `CN(C)c1ccc(/C=C/c2nc3c4ccccc4c4ccccc4c3[nH]2)cc1`, the absorption maximum is listed as 390 nm (in C1CCOC1); 389 nm (in C1COCCO1); 386 nm (in CC1CCCCC1); 389 nm (in CC#N); 387 nm (in CCOC(C)=O); 386 nm (in CCOCC). Moreover, the absorption maximum was found to be 392 nm (in CN(C)C=O); 389 nm (in COC(C)=O); 396 nm (in CS(C)=O); 393 nm (in Cc1ccccc1); 393 nm (in ClC(Cl)Cl).
